Experimental data taken from ChEMBL document CHEMBL1201862, “PubChem BioAssay data set” (2004).
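Interpolation was linear, between the two tested concentrations surrounding the appropriate level; five concentrations were tested over 48 hours in 96-well plates. GI50: concentration for 50% inhibition of growth.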 The source made the active and inactive calls. Rule as the data show it: active = GI50 up to about 1.1 µM and inactive = higher.

Key:
Assay in all cases: NCI anticancer screen, dose series, 48 h
EKVX = test system: EKVX
COLO 205 = test system: COLO 205
TK-10 = test system: TK-10
HCT-15 = test system: HCT-15
HL-60 = test system: HL-60
MCF7 = test system: MCF7
CAKI-1 = test system: CAKI-1
MDA-MB-435 = test system: MDA-MB-435
OVCAR-4 = test system: OVCAR-4
SR = test system: SR
SF-268 = test system: SF-268
HCT-116 = test system: HCT-116
HOP-92 = test system: HOP-92
786-0 = test system: 786-0
MDA-N = test system: MDA-N
SK-MEL-28 = test system: SK-MEL-28
NCI/ADR-RES = test system: NCI/ADR-RES
NCI-H460 = test system: NCI-H460
MDA-MB-231 = test system: MDA-MB-231
SF-539 = test system: SF-539

SMILES | GI50 (EKVX) | GI50 (COLO 205) | GI50 (TK-10) | GI50 (HCT-15) | GI50 (HL-60) | GI50 (MCF7) | GI50 (CAKI-1) | GI50 (MDA-MB-435) | GI50 (OVCAR-4) | GI50 (SR) | GI50 (SF-268) | GI50 (HCT-116) | GI50 (HOP-92) | GI50 (786-0) | GI50 (MDA-N) | GI50 (SK-MEL-28) | GI50 (NCI/ADR-RES) | GI50 (NCI-H460) | GI50 (MDA-MB-231) | GI50 (SF-539)
C/C=C/COc1cc(NC(=S)OC(C)C)ccc1Cl.C/C=C\COc1cc(NC(=S)OC(C)C)ccc1Cl | 12.6 µM (inactive) | 17.6 µM (inactive) | 14.9 µM (inactive) | 17.3 µM | 19.3 µM (inactive) | 19.8 µM (inactive) | 4.06 µM (inactive) | 21.2 µM (inactive) | 16.8 µM (inactive) | 16.8 µM (inactive) | 17.7 µM (inactive) | 17.4 µM (inactive) | 11.8 µM (inactive) | 17.3 µM (inactive) | 16.1 µM (inactive) | 17.6 µM (inactive) | 16 µM (inactive) | 16 µM (inactive) | 23.8 µM (inactive) | 19.8 µM (inactive)
N=C(N)c1ccc(/N=N\c2c(O)ccc3cc4c(/N=N\c5ccc(C(=N)N)cc5)c(O)ccc4cc23)cc1 | > 100 µM (inactive) | > 100 µM (inactive) | > 100 µM (inactive) | 56 µM | 25.2 µM (inactive) | 87.9 µM (inactive) | > 100 µM (inactive) | > 100 µM (inactive) | > 100 µM (inactive) | 26.6 µM (inactive) | 95.3 µM (inactive) | 50 µM (inactive) | > 100 µM (inactive) | 49 µM (inactive) | > 100 µM (inactive) | > 100 µM (inactive) | > 100 µM (inactive) | 40.7 µM (inactive) | 29 µM (inactive) | 94.8 µM (inactive)
OC(O)(C(F)(F)F)C(F)(F)F | > 100 µM (inactive) | > 100 µM (inactive) | > 100 µM (inactive) | > 100 µM | > 100 µM (inactive) | > 100 µM (inactive) | > 100 µM (inactive) | > 100 µM (inactive) | > 100 µM (inactive) | > 100 µM (inactive) | > 100 µM (inactive) | > 100 µM (inactive) | > 100 µM (inactive) | > 100 µM (inactive) | > 100 µM (inactive) | > 100 µM (inactive) | > 100 µM (inactive) | > 100 µM (inactive) | > 100 µM (inactive) | > 100 µM (inactive)
COC(=O)/C(=C/c1ccc(OC)cc1)c1cc(OC)c(OC)c(OC)c1 | 8.69 µM (inactive) | 1.47 µM (inactive) | 5.62 µM (inactive) | 0.646 µM | 0.406 µM (active) | 0.604 µM (active) | 1.12 µM (inactive) | 0.112 µM (active) | 7.43 µM (inactive) | 0.379 µM (active) | 6.01 µM (inactive) | 2.16 µM (inactive) | 3.98 µM (inactive) | 4.12 µM (inactive) | 0.133 µM (active) | 5.89 µM (inactive) | 0.514 µM (active) | 5.11 µM (inactive) | 3.38 µM (inactive) | 1.55 µM (inactive)
